Reference: article PMC3341351, “Down-Regulation of GABAA Receptor via Promiscuity with the Vasoactive Peptide Urotensin II Receptor. Potential Involvement in Astrocyte Plasticity” (PLoS ONE, 2012)

Assays:
[1] = system: α2β3γ2 GABAAR in the absence of UT; assay: Patch-clamp of Iso-evoked current in CHO expressing α2β3γ2 GABAAR without UT; format: cell-based; details: DMCM 10^−5 M; hUII and URP 10^−8 M; [Orn^5]-URP and palosuran 10^−6 M; Iso 10^−4 M, 2 s; n = 3–18
Description: For transfection, cells were trypsinized (0.05%), triturated in HamF-12 containing 10% FBS media, pelleted by centrifugation, resuspended in 100 µl solution V for nucleofection by an Amaxa Nucleofector Device (Köln, Germany; set to program U-016). Experiments were performed on normal CHO or on the stable CHO-UT cells and transiently transfected with combinations of cDNA encoding α2β3γ2, α2β3γ1, α2β1γ2, α2β3γ1, α2β3, β3γ2 (4 µg of cDNA total/transfection) GABAAR subunits. Cells were seeded on 14-mm poly-L-lysine-coated glass bottom insert dishes at 5×10^5 cells in a volume of 0.5 ml/dish. Cells were incubated overnight at 37°C in a humidified incubator (5% CO2) during 16 h before electrophysiological or immunocytochemical experiments.
GABAA receptor cDNA clones; α2, β1, β3, γ1 and γ2L engineered into the expression vector pCDM8 ([…], β1, γ2) or pcDNA/Amp (β3, γ1), were generously provided by Dr Wingrove (Merk Sharp and Dohme, Harlow, UK). To obtain β3 ^HA or γ2 ^HA epitope-tagged subunits, β3 or γ2 cDNA was amplified and the PCR product was subcloned using the SalI and NotI sites of pCMV-HA (Table S2) after digestion by the same restriction enzymes.
The conventional whole-cell configuration of the patch-clamp technique was used to study the GABA-gated currents in astrocytes and granule neurons, UT stably transfected CHO, CHO-UT, and CHO transiently transfected with diverse variants of UT and GABAAR subunits. After 24-h transfection, cell culture coverslips were placed in a small chamber (1.5 ml) on a stage of a right microscope DMLFSA (Leica, Heidelberg, Germany) and superfused continuously with the following bath solution containing (in mM): NaCl, 150; KCl, 2.5; HEPES, 5; CaCl2, 2; MgCl2, 1; glucose, 10 (pH 7.4 adjusted with NaOH). The patch pipettes were fabricated from 1.5 mm (outer diameter) soft glass tubes on a two-step vertical pipette puller (List-Medical, L/M-3P-A, Darmstadt, Germany). […] ATP and GTP were added to the internal solution used to fill electrode just before recording. All recordings were obtained at RT with cells voltage-clamped at −70 mV. The GABAA receptor agonist isoguvacine was prepared in the extracellular solution and was applied to cells by pneumatic pressure ejection. To prevent desenzitization, isoguvacine was more often ejected during 5 s at 2-min intervals. ATP, GTP, or guanosine 5′-O-(2-thiodiphosphate) (GDPβS) were administered through the patch pipette solution. We investigated the effect of competitive inhibition of GDP-GTP exchange by including GDPβS in the pipette solution (in addition to the normal amount of GTP). For GDPβS and the KIC, immediately following patch rupture, GABA current recordings were performed and the experiment was commenced after an equilibration period of 15 min. […]

[2] = system: GABAAR in astrocytes (mono-culture); assay: Patch-clamp responsiveness of astrocytes in mono-culture to isoguvacine; format: cell-based, rat; details: Iso 10^−4 M; n = 31
Description: Primary cultures of astrocytes were prepared as previously described. Briefly, cerebellum from 7-day-old (P7) Wistar rats were collected in DMEM/Ham-F12 (2∶1, v/v) culture medium supplemented with 2 mM glutamine, 1% insulin, 5 mM HEPES, 0.4% D(+)-glucose and 1% of the antibiotic-antimycotic solution. The tissues were disaggregated mechanically with a syringue equipped with a 1-mm gauge needle, and filtered through a 100-µm pore size mesh filter (Falcon, Becton Dickinson, Grenoble, France). Dissociated cells were resuspended in culture medium supplemented with 10% heat-inactivated FBS and seeded in 150-cm^2 culture flasks (Falcon) at a density of 20×10^6 cells/flask. Cells were incubated at 37°C in a humidified atmosphere (5% CO2) and the medium was changed twice a week. When cultures were confluent, the flasks were gently shaken on an orbital shaker at […] for 2 h. Dislodged cells were discarded and a second step of purification was performed at […] for 14–16 h. Remaining adhesive cells were collected by trypsination, centrifuged (800 g, 10 min) and plated in 150-cm^2 flasks. Suspended astrocytes were harvested and seeded in 24-well poly-L-lysine-coated plates. The purity of the cultures was previously assessed by counting the percentage of astrocytes immunostained with GFAP antibodies. The enriched cultures contained >99% astrocytes. […]

Molecule | Effect on Iso-evoked current in the absence of UT [1] | Cells responding to isoguvacine, astrocytes in mono-culture [2] [%]
ETPDCFWKYCV (disulfide) [hUII, human urotensin II, synthesized by solid phase methodology] | failed to affect the amplitude of the current | 
O=C(O)C1=CCNCC1 [Iso, isoguvacine] |  | 12
